From patent US8481459B2, “Chemical inhibitors of ethylene biosynthesis” (Academia Sinica, priority 2010, dated 2013)

Assays:
[1] = target: T1, recombinant Arabidopsis ACS5 (Arabidopsis thaliana, UniProt Q37001); experiment: Enzyme kinetics assay of ACS5 (Lineweaver-Burk); format: biochemical; set-up: Vmax of recombinant ACS5 in the presence of inhibitor: unit not given here
T1 construct: The full-length cDNA of Arabidopsis ACS5 (At5g65800) was cloned to pETDuet (Novagen); 6His (N); made in house; host or cells: E. coli BL21-CodonPlus (Stratagene)
T1 sequence (Q37001 1-470): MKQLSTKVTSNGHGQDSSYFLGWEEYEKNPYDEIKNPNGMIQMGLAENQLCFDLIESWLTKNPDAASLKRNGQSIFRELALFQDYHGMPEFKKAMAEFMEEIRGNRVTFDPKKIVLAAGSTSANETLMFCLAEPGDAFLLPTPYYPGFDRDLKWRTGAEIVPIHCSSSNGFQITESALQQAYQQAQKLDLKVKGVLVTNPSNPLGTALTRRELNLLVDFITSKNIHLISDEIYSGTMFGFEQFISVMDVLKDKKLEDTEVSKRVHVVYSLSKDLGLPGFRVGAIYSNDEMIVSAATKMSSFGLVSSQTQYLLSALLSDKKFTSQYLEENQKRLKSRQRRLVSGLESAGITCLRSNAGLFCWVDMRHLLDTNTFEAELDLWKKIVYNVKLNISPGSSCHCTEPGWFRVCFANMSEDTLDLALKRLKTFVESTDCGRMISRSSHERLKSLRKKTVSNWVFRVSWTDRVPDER
Protocol: For the enzyme kinetics assay, different concentrations of SAM (20, 40, 60, 80, 100, 150, and 200 μM) were used to determine the Km and Vmax of purified recombinant ACS5. In addition, two concentrations, 0.05 and 0.1 μM, of AVG and compound 7303 were tested to determine the inhibition constant Ki. Reactions of enzyme kinetics assay were performed by first incubating chemical inhibitors or DMSO with different concentrations of SAM in 20-mL GC vials, then 1.6 μg purified ACS5 was added to initiate the enzyme reaction for 30 min at 25° C. Gas chromatography was used to quantitate the levels of ethylene chemically converted from ACC as described previously. Data analysis of enzyme kinetics assays and preparation of Lineweaver-Burk plots were done by SIGMAPLOT (Systat Software Inc.).
Because the exemplary invention compounds and AVG have distinct chemical structures (Table 1), they may use different mechanisms to inhibit ACC synthase. To clarify this issue, compound 7303 was selected as a representative of the exemplary invention compounds for enzyme kinetic assay to determine the inhibitory mechanism. […] Data from the enzyme kinetic assay support that the exemplary invention compounds are novel inhibitors of ACC synthase different from AVG and show uncompetitive inhibition in ACS activity.

[2] = system: etiolated eto2-1 seedlings; experiment: Hypocotyl length of etiolated eto2-1 seedlings; format: in vivo, Arabidopsis thaliana; conditions: 30 μM
Protocol: Seeds of eto1-4 and eto2-1 were germinated in the dark in the absence (−) or presence (+) of different concentrations (10, 20 or 30 μM) of exemplary invention compounds and AVG. The length of hypocotyls and ethylene levels were quantified in 3-day-old etiolated seedlings. Data represent means±SE (n>40), and the experiments were repeated 3 times with similar results.
Therefore, ACC oxidase as the primary target of exemplary the exemplary invention compounds can be excluded. To determine whether the exemplary invention compounds are inhibitors of ACC synthase, the following assays were used. First, the hypocotyl length and ethylene level in the dominant eto2-1 mutant were analyzed, which bears a missense mutation at the 3′ terminus of ACS5 to generate a mutated yet functional protein, ACS5^eto2-1. […] Second, the effect of exemplary invention compounds on the enzymatic activity of recombinant Arabidopsis ACS5 protein by an in vitro ACS activity assay was analyzed (Chae, et al. (2003) Plant Cell 15, 545-559; Savaldi-Goldstein, et al. (2008) Proc Natl Acad Sci USA 105, 15190-15195).

COc1ccc(C2CC(=O)c3cnc(Nc4ccccc4)nc3C2)cc1 (centres unmarked) [Compound 7303]
Vmax of recombinant ACS5 in the presence of inhibitor ([1]; 0.1 μM inhibitor, without inhibitor 95.1±5.0): 50.5±1.2 | inhibition pattern (mechanism) ([1]; Lineweaver-Burk plot, 0.05 and 0.1 μM): uncompetitive inhibitor | Vmax ([1]; kinetic parameters of recombinant ACS5 fitted for the inhibitor series, substrate SAM): 92.4 µmol/h/mg | Ki ([1]; recombinant ACS5, inhibitor at 0.05 and 0.1 μM, read-out: calculated inhibition constant (Ki)): 98.4 ± 6.7 nM | suppression in hypocotyl length [2]: 25%
